The experiment addresses T1, human zDHHC17 (Homo sapiens, UniProt Q8IUH5).
T1 construct: expressed in transfected cells; host or cells: HEK293T
In words: GFP-SNAP25b S-acylation in HEK293T cells co-expressing zDHHC17. The class given is cell-based. Particulars: in cellulo HEK293T, compound 25 μM; for inhibition at 25 µM: HEK-293T, read-out: SNAP25 S-acylation inhibition (%), zDHHC17; for SNAP25 S-acylation inhibition (%), zDHHC17: 25 µM. Here is the method: We next investigated whether the identified compounds were effective at inhibiting zDHHC enzyme isoforms other than zDHHC2 (Fig. 6 and Table 1). […] We therefore treated cells coexpressing GFP-SNAP25 and each of these zDHHC enzymes with 25 μM of TTZ-1 and TTZ-2 and studied the subsequent effect on SNAP25 S-acylation. […] Importantly, the level of enzyme expression was unaffected by the compounds. […] As any major differences in the expression levels of the different enzymes could in theory contribute to the apparent differential effects of TTZ-1 and TTZ-2, we directly compared the expression of zDHHC2, zDHHC3, zDHHC7, zDHHC15, and zDHHC17 when transfected in HEK293T cells together with GFP-SNAP25.
Figure 6 Activity of TTZ-1 and TTZ-2 against SNAP25 S-acylation by human zDHHC2, zDHHC3, zDHHC7, zDHHC15, and zDHHC17 expressed in mammalian cells.A–E, HEK293T cells were transfected with a plasmid encoding GFP-SNAP25b together with either a control plasmid pEF-BOS-HA (pEF) or a plasmid encoding either HA-tagged human zDHHC2 (zD2) (A), zDHHC3 (zD3) (B), zDHHC7 (zD7) (C), zDHHC15 (zD15) (D), or zDHHC17 (zD17) (E) for 24 h. Cells were then preincubated for 4 h with TTZ-1 or TTZ-2 (25 μM final) or DMSO control before metabolic labeling with 100 μM C16:0-azide for 4 h. Cells were lysed, and proteins having incorporated C16:0-azide were labeled by click chemistry with an alkyne-IR800 dye. Protein samples were then resolved by SDS-PAGE and transferred to nitrocellulose membranes that were first stained with an infrared-680 total protein stain. Membranes were then destained and probed with an anti-HA antibody (IR680), followed by an anti-GFP antibody (IR680). Representative images are shown, and panels are presented in the following order (from top to bottom): click chemistry signal (Click [IR800]), GFP and HA immunoblots (IR680), and Total Protein Stain (IR680). Positions of the molecular mass markers (in kilodalton) are indicated on the right side of the membranes. Three independent experiments were performed either in duplicate or in triplicate, and the quantification data were gathered on the graphs below each set of membranes. […] Filled circles represent individual samples. […] Filled circles represent individual samples. Statistical analysis (ANOVA) was performed to test whether there was a significant difference between the zDHHC expression of cells treated with DMSO as a control versus similar samples treated with TTZ-1 or TTZ-2 (∗∗p < 0.01). F, samples from A, B, C, D, and E (expressing GFP-SNAP25 and HA-tagged zDHHC enzymes and treated with DMSO) were loaded on an SDS-PAGE gel and transferred to a nitrocellulose membrane. The membrane was probed for the expression of the HA-tagged enzymes with an anti-HA antibody (IR680). […]

The structures appear in SMILES notation.

T1 sequence (Q8IUH5 whole entry): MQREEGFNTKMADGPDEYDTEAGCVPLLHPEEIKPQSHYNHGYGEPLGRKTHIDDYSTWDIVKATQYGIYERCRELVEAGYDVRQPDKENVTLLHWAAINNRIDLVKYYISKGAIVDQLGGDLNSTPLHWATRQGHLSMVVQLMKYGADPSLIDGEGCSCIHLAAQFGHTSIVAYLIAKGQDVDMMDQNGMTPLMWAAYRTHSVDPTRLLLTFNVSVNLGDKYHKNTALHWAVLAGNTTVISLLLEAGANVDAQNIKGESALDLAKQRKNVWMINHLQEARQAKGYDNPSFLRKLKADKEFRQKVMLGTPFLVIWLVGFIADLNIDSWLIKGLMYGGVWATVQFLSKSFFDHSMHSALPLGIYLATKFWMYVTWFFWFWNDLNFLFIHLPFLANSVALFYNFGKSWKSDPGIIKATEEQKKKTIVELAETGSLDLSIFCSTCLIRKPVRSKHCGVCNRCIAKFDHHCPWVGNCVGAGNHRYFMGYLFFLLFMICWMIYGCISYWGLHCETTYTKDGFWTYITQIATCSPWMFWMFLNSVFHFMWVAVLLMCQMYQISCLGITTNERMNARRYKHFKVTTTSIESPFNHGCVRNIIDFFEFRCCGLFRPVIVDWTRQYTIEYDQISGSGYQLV

Consider `CCCCCCCOc1ccc(C(=O)Nc2cccc3c2OC(c2nnn[nH]2)CN3)cc1` (stereo not shown) [TTZ-1, N-(2-(1H-Tetrazol-5-yl)-3,4-dihydro-2H-benzo[b][1,4]oxazin-8-yl)-4-(heptyloxy)benzamide], for which the inhibition (in general, the relative decrease from the control value, in per cent) at 25 µM lay within 35 to 40% and the “SNAP25 S-acylation inhibition (%), zDHHC17” value was 36 ± 7%.

Take `O=C(Nc1cccc2c1OC(c1nnn[nH]1)CN2)c1ccc(OCCCCc2ccccc2)cc1` (stereo not shown) [TTZ-2, N-(2-(1H-Tetrazol-5-yl)-3,4-dihydro-2H-benzo[b][1,4]oxazin-8-yl)-4-(4-phenylbutoxy)benzamide]: the inhibition at 25 µM was 35 to 40% and the “SNAP25 S-acylation inhibition (%), zDHHC17” value is 39 ± 7%.

These data come from PMC9558053, “Development of a novel high-throughput screen for the identification of new inhibitors of protein S-acylation” (The Journal of Biological Chemistry, 2022).
